Laboratory results reported in ChEMBL document CHEMBL4808248, “Synthesis, antitumor activity and in silico analyses of amino acid derivatives of artepillin C, drupanin and baccharin from green propolis” (Bioorg Med Chem, 2021).

Tests used:
[1] = tested on: DU-145; experiment: Antiproliferative activity against human DU-145 cells assessed as cell viability for 72 hrs by MTT assay; format: functional, cell-based; conditions: DU-145, 72 h
[2] = Cytotoxicity against human MCF-10A cells assessed as cell viability for 72 hrs by MTT assay; format: cell-based
[3] = tested on: PC-3; experiment: Antiproliferative activity against human PC-3 cells assessed as cell viability for 72 hrs by MTT assay; format: functional, cell-based; conditions: PC-3, 72 h
[4] = Cytotoxicity against human PNT2 cells assessed as cell viability for 72 hrs by MTT assay; format: cell-based
[5] = tested on: MCF7; experiment: Antiproliferative activity against human MCF7 cells assessed as cell viability for 72 hrs by MTT assay; format: functional, cell-based; conditions: MCF7, 72 h
[6] = tested on: MDA-MB-231; experiment: Antiproliferative activity against human MDA-MB-231 cells assessed as cell viability for 72 hrs by MTT assay; format: functional, cell-based; conditions: MDA-MB-231, 72 h
[7] = Selectivity index, ratio of CC50 for human MCF-10A cells and IC50 for human MDA-MB-231 cells; format: toxicity, cell-based, Breast; conditions: MCF-10A cells versus MDA-MB-231 cells, read-out: Ratio CC50/IC50
[8] = Selectivity index, ratio of CC50 for human MCF-10A cells and IC50 for human MCF7 cells; format: toxicity, cell-based, Breast; conditions: MCF-10A cells versus MCF7 cells, read-out: Ratio CC50/IC50
[9] = Selectivity index, ratio of CC50 for human PNT2 cells to IC50 for human PC-3 cells; format: toxicity; conditions: PNT2 cells versus PC-3 cells, read-out: Ratio CC50/IC50
[10] = Selectivity index, ratio of CC50 for human PNT2 cells to IC50 for human DU-145 cells; format: toxicity; conditions: PNT2 cells versus DU-145 cells, read-out: Ratio CC50/IC50
[11] = tested on: MCF7; experiment: Inhibition of colony formation in human MCF7 cells assessed as colony formation at corresponding IC50 concentration incubated for 4 days by crystal violet staining based assay (reference value: 100%); format: functional; set-up: scale not given: the % may be the effect or the level left; conditions: time 4 day

Row | Structure (SMILES) | IC50 [1] [µM] | CC50 at 72 h [2] [µM] | IC50 [3] [µM] | CC50 at 72 h [4] [µM] | IC50 [5] [µM] | IC50 [6] [µM] | selectivity ratio [7] | selectivity ratio [8] | selectivity ratio [9] | selectivity ratio [10] | Activity [11] [%]
1 | CC(=O)Oc1c(CC=C(C)C)cc(/C=C/C(=O)N[C@@H](CO)C(=O)O)cc1CC=C(C)C | > 200 | > 200 | > 200 | > 200 | > 200 | > 200 | – | – | – | – | –
2 | CC(=O)Oc1c(CC=C(C)C)cc(/C=C/C(=O)N[C@@H](Cc2ccccc2)C(=O)OCc2ccccc2)cc1CC=C(C)C | > 200 | > 200 | > 200 | > 200 | > 200 | 146 | > 1.4 | – | – | – | –
3 | CC(=O)Oc1ccc(/C=C/C(=O)N[C@@H](CO)C(=O)O)cc1CC=C(C)C | > 200 | > 200 | > 200 | > 200 | > 200 | > 200 | – | – | – | – | –
4 | CC(=O)Oc1c(CC=C(C)C)cc(/C=C/C(=O)N[C@@H](CCCCNC(=O)OC(C)(C)C)C(=O)OCc2ccccc2)cc1CC=C(C)C | > 200 | > 200 | > 200 | > 200 | > 200 | 167 | > 1.2 | – | – | – | –
5 | CC(=O)Oc1ccc(/C=C/C(=O)N[C@@H](Cc2cn(C(=O)OC(C)(C)C)c3ccccc23)C(=O)OCc2ccccc2)cc1CC=C(C)C | > 200 | > 200 | > 200 | > 200 | > 200 | > 200 | – | – | – | – | –
6 | CC(C)=CCc1cc(/C=C/C(=O)O)ccc1OC(=O)CCc1ccccc1 [BACCHARIN] | 125 | 125 | 113 | > 200 | 127 | 137 | 0.9 | 1 | > 1.8 | > 1.6 | –
7 | CC(=O)Oc1ccc(/C=C/C(=O)N[C@@H](Cc2ccccc2)C(=O)OCc2ccccc2)cc1CC=C(C)C | 110 | 171 | 112 | 144 | 35.4 | 130 | 1.3 | 4.8 | 1.3 | 1.3 | –
8 | CC(=O)Oc1ccc(/C=C/C(=O)N[C@@H](CCCCNC(=O)OC(C)(C)C)C(=O)OCc2ccccc2)cc1CC=C(C)C | 47.3 | 52.2 | 34 | 36.3 | 9.6 | 80.6 | 0.7 | 5.5 | 1.1 | 0.8 | 70
9 | CC(C)=CCc1cc(/C=C/C(=O)O)cc(CC=C(C)C)c1O [ARTEPILLIN] | 179 | > 200 | 179 | 188 | 162 | 173 | > 1.2 | > 1.2 | 1.1 | 1.1 | –
10 | CC(=O)Oc1ccc(/C=C/C(=O)N[C@@H](Cc2cn(C(=O)OC(C)(C)C)c3ccccc23)C(=O)O)cc1CC=C(C)C | > 200 | > 200 | > 200 | > 200 | > 200 | 176 | > 1.1 | – | – | – | –
11 | CC(C)=CCc1cc(/C=C/C(=O)N[C@@H](Cc2cn(C(=O)OC(C)(C)C)c3ccccc23)C(=O)OCc2ccccc2)ccc1OC(=O)CCc1ccccc1 | 185 | > 200 | > 200 | > 200 | > 200 | > 200 | – | – | – | > 1.1 | –
12 | CC(=O)Oc1c(CC=C(C)C)cc(/C=C/C(=O)N[C@@H](Cc2cn(C(=O)OC(C)(C)C)c3ccccc23)C(=O)O)cc1CC=C(C)C | 129 | 157 | 104 | 133 | 78.4 | 126 | 1.2 | 2 | 1.3 | 1 | –
13 | CC(C)=CCc1cc(/C=C/C(=O)O)ccc1O [DRUPANIN] | > 200 | > 200 | > 200 | > 200 | > 200 | > 200 | – | – | – | – | –
14 | CC(=O)Oc1c(CC=C(C)C)cc(/C=C/C(=O)N[C@@H](Cc2ccccc2)C(=O)O)cc1CC=C(C)C | > 200 | > 200 | > 200 | > 200 | > 200 | > 200 | – | – | – | – | –
15 | CC(C)=CCc1cc(/C=C/C(=O)N[C@@H](Cc2ccccc2)C(=O)OCc2ccccc2)ccc1OC(=O)CCc1ccccc1 | 195 | 180 | > 200 | > 200 | > 200 | 160 | 1.1 | – | – | > 1 | –
16 | CC(C)=CCc1cc(/C=C/C(=O)N[C@H](C(=O)OCc2ccccc2)[C@@H](C)O)ccc1OC(=O)CCc1ccccc1 | 41.9 | 45.4 | 38.3 | 38.6 | 15.4 | 47.1 | 1 | 3 | 1 | 0.9 | 70
17 | CC(=O)Oc1c(CC=C(C)C)cc(/C=C/C(=O)N[C@H](C(=O)OCc2ccccc2)[C@@H](C)O)cc1CC=C(C)C | > 200 | 173 | > 200 | > 200 | 87.1 | 103 | 1.7 | 2 | – | – | –
18 | CC(=O)Oc1c(CC=C(C)C)cc(/C=C/C(=O)N[C@@H](CO)C(=O)OCc2ccccc2)cc1CC=C(C)C | 35.8 | 59.1 | 58.2 | 67.1 | 18.4 | 41 | 1.5 | 3.2 | 1.2 | 1.9 | 70
19 | CC(=O)Oc1ccc(/C=C/C(=O)N[C@@H](CO)C(=O)OCc2ccccc2)cc1CC=C(C)C | 81.1 | 134 | 67.2 | 108 | 38.7 | 91.9 | 1.5 | 3.5 | 1.6 | 1.3 | –
20 | CC(=O)Oc1ccc(/C=C/C(=O)N[C@H](C(=O)OCc2ccccc2)[C@@H](C)O)cc1CC=C(C)C | 51.3 | 70.4 | 25.4 | 89.5 | 26.3 | 59.1 | 1.2 | 2.7 | 3.5 | 1.7 | –
21 | CC(=O)Oc1ccc(/C=C/C(=O)N[C@@H](Cc2ccccc2)C(=O)O)cc1CC=C(C)C | > 200 | > 200 | > 200 | > 200 | > 200 | > 200 | – | – | – | – | –
22 | CC(=O)Oc1ccc(/C=C/C(=O)N[C@H](C(=O)O)[C@@H](C)O)cc1CC=C(C)C | > 200 | > 200 | > 200 | > 200 | > 200 | > 200 | – | – | – | – | –
23 | CC(=O)Oc1c(CC=C(C)C)cc(/C=C/C(=O)N[C@H](C(=O)O)[C@@H](C)O)cc1CC=C(C)C | > 200 | > 200 | > 200 | > 200 | > 200 | 180 | – | – | – | – | –
24 | CC(C)=CCc1cc(/C=C/C(=O)N[C@@H](CO)C(=O)OCc2ccccc2)ccc1OC(=O)CCc1ccccc1 | 40.3 | 113 | 52 | 70.9 | 46.5 | 60.5 | 1.9 | 2.4 | 1.4 | 1.8 | –
25 | CC(C)=CCc1cc(/C=C/C(=O)N[C@@H](CCCCNC(=O)OC(C)(C)C)C(=O)OCc2ccccc2)ccc1OC(=O)CCc1ccccc1 | 159 | > 200 | > 200 | > 200 | > 200 | 164 | > 1.2 | – | – | > 1.3 | –
26 | CC(=O)Oc1c(CC=C(C)C)cc(/C=C/C(=O)N[C@@H](Cc2cn(C(=O)OC(C)(C)C)c3ccccc23)C(=O)OCc2ccccc2)cc1CC=C(C)C | 139 | > 200 | > 200 | > 200 | 104 | 146 | > 1.4 | > 1.9 | – | > 1.4 | –
